# Measurements as given in publication PMC8774364, “Anti-Colon Cancer Activity of Novel Peptides Isolated from In Vitro Digestion of Quinoa Protein in Caco-2 Cells” (Foods, 2022).
# Read-outs that look alike come from different tables or passages of the source. Marks after values point to notes of the source that are not given here. Ends that are not written are not given here.
# Assays:
# [1] = system: Caco-2 cells; format: cell-based, human; conditions: for Viable Cells (%): SD; for inhibition of Caco-2 proliferation: human, Caco-2, 72 h
# Method: The human CRC cell line Caco-2 was obtained from American Type Cell Collection (ATCC, Manassas, VA, USA) and cultured in MEM medium supplemented with 20% FBS, 1% penicillin, and 1% streptomycin. Cells were maintained at 37 °C in a humidified incubator containing 5% CO2 and 95% air. The medium was changed every 24 h. All cells were assayed within 5–15 passages. Utilizing the CCK-8 kit (Biorigin, Beijing, China), the toxicity test was first performed. Caco-2 cells (100 µL) were incubated in the 96-well plate (1 × 10^5 cells/well) for 24 h, then the original medium was replaced with fresh medium containing different concentrations of QP (1–8 g/L), QPH (1–8 g/L), fraction MW < 5 kDa (1–8 g/L), fraction MW > 5 kDa (1–8 g/L), and selected peptides ranging from 0 to 2 g/L. After 24 h co-cultivation, the medium was discarded and washed with PBS 2 times, and a fresh medium with 10% CCK-8 reagent was added to each cell. Another 1 h later, the absorbance (OD value) was determined by an enzyme-labeling instrument at a wavelength of 450 nm. Experiments were performed in triplicate with at least three replicates per concentration, and results were expressed as percentage of negative control (non-treated Caco-2 cells).
# For the proliferation experiments, Caco-2 cells were seeded into 96-well plates at a density of 2.5 × 10^4 per well for 24 h, the incubation was continued for 72 h. After that, the subsequent washing and CCK-8 reaction process were the same as performed in the toxicity test. Finally, the absorbance was also detected at 450 nm. Analyses were performed in triplicate with at least three replicates per concentration, and results were also shown as the percentage of non-treated Caco-2 cells.
# [2] = target: T1, HDAC1 (Homo sapiens, UniProt Q13547); assay: HDAC1 inhibitory activity assay (inhibitor screening kit, fluorescence); format: biochemical; conditions: for HDAC1 IC50 attained or not, in words: peptide 0.05–2 g/L tested; for IC50: peptide 0.05–2 g/L, 30 min at 37 °C, fluorescence, triplicate
# T1 construct: purchased Abnova
# T1 sequence (Q13547 whole entry): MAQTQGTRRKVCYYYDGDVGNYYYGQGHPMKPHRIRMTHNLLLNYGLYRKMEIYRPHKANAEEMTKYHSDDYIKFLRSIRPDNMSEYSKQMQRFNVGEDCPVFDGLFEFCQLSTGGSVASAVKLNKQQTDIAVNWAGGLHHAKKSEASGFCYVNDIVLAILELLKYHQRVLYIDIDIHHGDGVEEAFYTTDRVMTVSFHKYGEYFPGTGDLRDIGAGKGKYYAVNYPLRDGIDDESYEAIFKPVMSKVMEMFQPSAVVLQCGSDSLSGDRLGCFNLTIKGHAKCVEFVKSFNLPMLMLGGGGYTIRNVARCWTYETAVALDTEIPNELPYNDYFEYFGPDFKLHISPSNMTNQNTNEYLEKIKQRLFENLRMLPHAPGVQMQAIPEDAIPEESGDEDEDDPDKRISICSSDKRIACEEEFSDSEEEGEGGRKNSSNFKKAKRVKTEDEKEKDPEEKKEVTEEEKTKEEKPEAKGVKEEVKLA
# Method: HDAC1 activity was determined using the HDAC1 inhibitor screening assay kit (Abnova, Taipei, Taiwan). The assay was performed according to the manufacture instruction manual. Briefly, the sample wells were added 140 µL assay buffer, 10 µL diluted HDAC1, and 10 µL peptide samples (0.05–2 g/L). The trichostatin A was set as the positive control, and the sample buffer was set as the negative control. We initiated the reactions by adding 10 µL of HDAC substrate to all the wells being used. Cover the plate with the plate cover and incubate on a shaker for 30 min at 37 °C. Remove the plate cover and add 40 µL of developer. Cover the plate with the plate cover and incubate for 15 min at room temperature. Remove the plate cover and read the fluorescence using an excitation wavelength of 340–360 nm and an emission wavelength of 440–465 nm. IC50 values were calculated using GraphPad Prism 8 software. Analyses were performed in triplicate with at least three replicates per concentration.
# [3] = system: colon cancer cells; conditions: read-out: 50% inhibition; cited from earlier work
# Text: Histone acetylation and deacetylation are important for the regulation of gene expression. The family of HDACs includes 18 members, and class I HDACs (HDAC 1, 2, 3, and 8) is considered to be the most important ones. […] For example, HDAC1 expression was increased in colorectal cancer and gastric cancer. In contrast, HDAC1 knockdown causes cell cycle arrest, reduces cancer cell viability, and induces cancer cell apoptosis. Moreover, pharmacological inhibitors ...
# [4] = Caco-2, CCK-8, peptide 1 g/L, % of non-treated cells, mean ± SD
# [5] = Caco-2, CCK-8, peptide 1 × 10^−1 g/L, % of non-treated cells, mean ± SD
# [6] = Caco-2, CCK-8, peptide 2 g/L, % of non-treated cells, mean ± SD
# [7] = Caco-2, CCK-8, peptide 5 × 10^−1 g/L, % of non-treated cells, mean ± SD
Substance,"Viable Cells (%) [1, 4]","Viable Cells (%) [1, 5]","Viable Cells (%) [1, 6]","Viable Cells (%) [1, 7]","HDAC1 IC50 attained or not, in words [2]",IC50 [2] [mM],"Viable Cells (%) ([1]; 24 h, 0.1 g/L)","Viable Cells (%) ([1]; 24 h, 0.5 g/L)","Viable Cells (%) ([1]; 24 h, 1 g/L)","Viable Cells (%) ([1]; 24 h, 2 g/L)",inhibition of Caco-2 proliferation ([1]; 1 g/L),IC50 [3] [mM]
FGGGTLGHPW [quinoa peptide identified from QPH fraction < 5 kDa],90.41 ± 0.69 ^d %,97.09 ± 0.74 ^c %,89.72 ± 0.60 ^c %,91.65 ± 0.43 ^c %,–,–,–,–,–,–,–,–
FHPFPR [FHPFPR],–,–,–,–,can reach to IC50 value,1.09,90.04 ± 1.26 ^e %,75.46 ± 0.86 ^f %,51.41 ± 0.80 ^k %,50.82 ± 0.76 ^j %,more than 30%,–
GLESPNYPWPH [quinoa peptide identified from QPH fraction < 5 kDa],97.40 ± 0.73 ^b %,99.75 ± 1.06 ^a %,97.70%,99.32 ± 1.05 ^a %,–,–,–,–,–,–,–,–
HGSLGFLPR [quinoa peptide identified from QPH fraction < 5 kDa],96.81 ± 0.88 ^b %,97.35 ± 1.03 ^c %,95.80 ± 0.62 ^b %,96.91%,–,–,–,–,–,–,–,–
HYNPYFPGGA [HYNPYFPGGA],–,–,–,–,can reach to IC50 value,1.65,93.69 ± 0.68 ^d %,82.34 ± 1.36 ^e %,67.44 ± 1.26 ^i %,67.10 ± 1.87 ^h %,more than 30%,–
INNIFRPF [quinoa peptide identified from QPH fraction < 5 kDa],80.44 ± 0.68 ^f %,100.40 ± 1.29 ^a %,80.61 ± 0.41 ^e %,92.05 ± 1.07 ^c %,can reach to IC50 value,–,–,–,–,–,–,–
NIFRPF [quinoa peptide identified from QPH fraction < 5 kDa],70.29 ± 0.56 ^h %,100.10 ± 1.03 ^a %,70.55 ± 2.01 ^g %,85.11 ± 0.66 ^d %,can reach to IC50 value,–,–,–,–,–,–,–
NSLSLPNFHPFPR [quinoa peptide identified from QPH fraction < 5 kDa],86.55 ± 0.58 ^e %,100.79 ± 0.52 ^a %,83.56 ± 0.71 ^d %,92.78 ± 2.20 ^c %,–,–,–,–,–,–,–,–
NSWGPNWGDHG [quinoa peptide identified from QPH fraction < 5 kDa],99.58 ± 1.08 ^a %,98.87%,97.92 ± 1.41 ^a %,98.60 ± 2.28 ^a %,–,–,–,–,–,–,–,–
NWFPLPR [NWFPLPR],–,–,–,–,can reach to IC50 value,1.37,92.86 ± 1.10 ^d %,79.99 ± 0.86 ^e %,64.02 ± 1.39 ^j %,63.18 ± 0.83 ^i %,more than 30%,–
PNFHPFPR [PNFHPFPR],–,–,–,–,can reach to IC50 value,–,90.46 ± 1.43 ^e %,77.26 ± 1.65 ^f %,65.32 ± 1.45 ^j %,61.67 ± 1.64 ^i %,more than 30%,–
SLPNFHPFPR [quinoa peptide identified from QPH fraction < 5 kDa],78.51 ± 0.26 ^g %,97.79%,78.00 ± 0.80 ^f %,87.21 ± 0.32 ^d %,can reach to IC50 value,–,–,–,–,–,–,–
SVENWFPLPR [quinoa peptide identified from QPH fraction < 5 kDa],92.14 ± 0.69 ^c %,99.43%,91.04 ± 1.53 ^c %,95.50 ± 3.60 ^b %,–,–,–,–,–,–,–,–
lunasin,–,–,–,–,–,–,–,–,–,–,–,0.0617
